Data on 8 compounds can be found in patent publication US11845747B2, “Ester and carbonate pyrimidine compounds as JAK kinase inhibitors” (priority 2019, dated 2023).

Series [1] can be described thus: In vitro skin S9 metabolic stability assay (mouse). To be noted: mouse, s9, pH 7.4. It counts as in vitro ADME. As for the experimental part:
(§1) Assay 6: In Vitro Skin S9 Metabolic Stability Assay
(§2) The objective of this assay was to assess the metabolic stability of compounds in human and mouse skin S9 sub-fraction. Human and mouse skin S9 sub-fractions obtained from Bioreclamation-IVT (Baltimore, Md.) were thawed on ice and diluted into 0.1M potassium phosphate buffer pH 7.4 to yield final incubation protein concentrations of 1.0 mg/mL. Test compounds (10 mM) were diluted into phosphate buffer to yield final incubation concentrations of 0.2 μM and 2.0 μM. Incubations were conducted at 37° C. temperature following addition of 1 mM NADPH and test aliquots were taken at time points 0, 5, 10, 20, 30 and 45 minutes. Each aliquot was crashed into water with 3% formic acid and 1 μM internal standard. The resulting samples were injected onto an LC-MS/MS system for analysis.
(§3) For each incubation, the peak area of the analytes in each t0 aliquot was set to 100% and the peak areas from subsequent time point aliquots were converted to percentage of parent compound remaining relative to t0. The percentage of parent compound remaining at each time point was converted to natural log scale and plotted versus time in minutes to determine a disappearance half-life.

The target in series [2] is T1, JAK2 (Homo sapiens, UniProt O60674).
T1 construct: GST; purchased Life Technologies
T1 sequence (O60674 whole entry): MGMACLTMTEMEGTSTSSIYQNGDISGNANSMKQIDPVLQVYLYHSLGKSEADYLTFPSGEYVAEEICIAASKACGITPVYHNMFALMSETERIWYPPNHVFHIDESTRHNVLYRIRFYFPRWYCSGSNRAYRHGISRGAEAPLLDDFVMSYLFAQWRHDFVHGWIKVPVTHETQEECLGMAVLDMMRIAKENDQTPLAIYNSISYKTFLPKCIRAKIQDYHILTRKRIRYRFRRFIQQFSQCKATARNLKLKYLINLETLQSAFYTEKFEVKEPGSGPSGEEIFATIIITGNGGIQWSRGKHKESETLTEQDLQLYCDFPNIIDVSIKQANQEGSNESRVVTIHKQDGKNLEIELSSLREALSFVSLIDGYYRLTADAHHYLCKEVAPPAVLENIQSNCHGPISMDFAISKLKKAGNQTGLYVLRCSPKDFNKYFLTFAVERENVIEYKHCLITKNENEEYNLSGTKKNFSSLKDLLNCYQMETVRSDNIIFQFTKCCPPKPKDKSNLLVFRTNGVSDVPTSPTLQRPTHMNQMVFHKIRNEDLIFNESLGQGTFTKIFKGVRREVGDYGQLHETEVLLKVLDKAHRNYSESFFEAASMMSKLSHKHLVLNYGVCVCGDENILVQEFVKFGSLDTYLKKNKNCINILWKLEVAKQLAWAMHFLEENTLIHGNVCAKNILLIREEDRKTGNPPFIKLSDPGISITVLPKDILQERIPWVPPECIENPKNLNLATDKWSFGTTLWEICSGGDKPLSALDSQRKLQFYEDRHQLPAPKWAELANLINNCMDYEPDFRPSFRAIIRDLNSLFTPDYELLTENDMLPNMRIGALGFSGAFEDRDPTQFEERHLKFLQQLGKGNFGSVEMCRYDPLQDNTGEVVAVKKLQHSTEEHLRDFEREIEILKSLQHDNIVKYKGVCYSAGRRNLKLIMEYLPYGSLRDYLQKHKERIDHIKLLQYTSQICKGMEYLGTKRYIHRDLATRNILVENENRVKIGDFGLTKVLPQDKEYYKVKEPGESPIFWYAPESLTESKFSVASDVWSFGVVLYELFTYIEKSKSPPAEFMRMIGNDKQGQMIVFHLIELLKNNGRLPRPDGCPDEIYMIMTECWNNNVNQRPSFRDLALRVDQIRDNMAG
As to the kind of experiment: Biochemical LanthaScreen JAK2 kinase assay. The note with it: Km ATP 3 μM; pKi from pIC50 by Cheng-Prusoff; read-out: JAK 2 (pKi) (converted). As for the experimental part:
Assay 1: Biochemical JAK and Tyk2 Kinase Assays A panel of four LanthaScreen JAK biochemical assays (JAK1, 2, 3 and Tyk2) were carried in a common kinase reaction buffer (50 mM HEPES, pH 7.5, 0.01% Brij-35, 10 mM MgCl2, and 1 mM EGTA). Recombinant GST-tagged JAK enzymes and a GFP-tagged STAT1 peptide substrate were obtained from Life Technologies. Serially or discretely diluted compounds were pre-incubated with each of the four JAK enzymes and the substrate in white 384-well microplates (Corning) at ambient temperature for 1 h. ATP was subsequently added to initiate the kinase reactions in 10 μL total volume, with 1% DMSO. […] Kinase reactions were allowed to proceed for 1 hour at ambient temperature before a 10 μL preparation of EDTA (10 mM final concentration) and Tb-anti-pSTAT1 ([…]) antibody (Life Technologies, 2 nM final concentration) in TR-FRET dilution buffer (Life Technologies) was added. The plates were allowed to incubate at ambient temperature for 1 h before being read on the EnVision reader (Perkin Elmer). Emission ratio signals (520 nm/495 nm) were recorded and utilized to calculate the percent inhibition values based on DMSO and background controls. For dose-response analysis, percent inhibition data were plotted vs. compound concentrations, and IC50 values were determined from a 4-parameter robust fit model with the Prism software (GraphPad Software). Results were expressed as pIC50 (negative logarithm of IC50) and subsequently converted to pKi (negative logarithm of dissociation constant, Ki) using the Cheng-Prusoff equation.
In general terms: Time-resolved FRET reads energy transfer from a long-lived donor to a nearby acceptor.

Series [3] in a line: In vitro skin S9 metabolic stability assay (human). It counts as in vitro ADME. To be noted: human, s9, pH 7.4. On the procedure: as §1, §2, §3
A short description of series [4]: in vitro. The class given is in vitro ADME. The note with it: human, microsomes, pH 7.4. On the procedure:
Assay 3: Human Liver Microsome Assay The objective of this assay was to assess the metabolic stability of test compounds in an in vitro human liver sub-fraction. Human liver microsomes obtained from Bioreclamation-IVT (Baltimore, Md.) were thawed on ice and diluted into 0.1M potassium phosphate buffer pH 7.4 to yield final incubation protein concentrations of 0.1 mg/mL. Test compounds (10 mM) were diluted into NADPH cofactor to yield final incubation concentrations of 0.1 μM test compound and 1 mM NADPH. Incubations were conducted at 37° C. temperature and test aliquots were taken at time points 0, 5, 8, 15, 30 and 45 minutes. […] The resulting samples were injected onto an LC-MS/MS system for analysis. For each incubation, the peak area of the analytes in each t0 aliquot was set to 100% and the peak areas from subsequent time point aliquots were converted to percentage of parent compound remaining relative to t0. The percentage of parent compound remaining was converted to natural log scale and plotted versus time in minutes. A linear regression analysis was performed for the initial decline of the parent disappearance profile and a formula for the best-fit line determined. The slope of the resultant line was normalized to protein concentration in mg/mL protein or number of cells/mL and CLint was calculated as follows for liver microsomes: CLint(μL·min^−1·mg^−1)=(Slope×1000)/[protein, mg/mL]

The subject of series [5] is Caco-2 cell monolayers. The series is described as follows: Caco-2 permeation assay. To be noted: A to B, 5 μM compound, with Verapamil 25 μM, 120 minutes. The class given is in vitro ADME. As for the experimental part:
Assay 8: Caco-2 Permeation Assay The Caco-2 permeation assay was used as an indication of skin permeability. The assay measures the rate at which test compounds in solution permeate a cell monolayer (designed to mimic the tight junction of human small intestinal monolayers). CacoReady 24-well transwell plates were obtained from […], Calif.). The compounds were evaluated at a concentration of 5 μM from 10 mM DMSO stock solutions in duplicate (n=2). The passive permeability of the compounds tested was evaluated using Caco-2 cell monolayers along with Verapamil (25 μM) to inhibit P-gp transport proteins in the apical to basolateral (A-B) direction. The experiment was conducted in a 37° C., 5% CO2 incubator. Caco-2 culture media consisted of standard filtered DMEM, FCS 10%, L-Glutamine 1% and PenStrep 1%. Basal assay plate was prepared by adding 750 μL of transport buffer to A-B wells. A CacoReadyTM plate was prepared by removing the Caco-2 media from the apical wells and replacing with fresh transport media (200 μL repeated for a total of 3 washes). Blank media (200 μL) was then replaced with diluted compound for A-B wells. To begin the incubation, the basal plate was removed from the incubator and the apical section was added on top of it. […] The permeation coefficient (Kp, mean A to B+Verapamil […]) in cm/sec was calculated as dQ (flux)/(dt×Area×concentration).
(In general: Caco-2 cells form a polarised layer with tight junctions and transporters.)

Take `CCS(=O)(=O)N1[C@@H]2CCC[C@H]1C[C@H](N(C)c1nc(COC(C)=O)c(F)c(Nc3cc(C)[nH]n3)n1)C2` [Compound 1, (2-(((1R,3s,5S)-9-(ethylsulfonyl)-9-azabicyclo[3.3.1]nonan-3-yl)(methyl)amino)-5-fluoro-6-((5-methyl-1H-pyrazol-3-yl)amino)pyrimidin-4-yl)methyl acetate]: in series [1], the half-life at 0.2 μM is < 15 min and the half-life at 2 μM was 15 to 30 min. Moreover, the Ki in series [2] was ≤ 0.1 nM. In series [3], the half-life at 0.2 μM is > 30 min and the half-life at 2 μM is > 30 min.

As for `CCC(=O)OCc1nc(N(C)[C@@H]2C[C@H]3CCC[C@@H](C2)N3S(=O)(=O)CC)nc(Nc2cc(C)[nH]n2)c1F` [Compound 2, (2-(((1R,3s,5S)-9-(ethylsulfonyl)-9-azabicyclo[3.3.1]nonan-3-yl)(methyl)amino)-5-fluoro-6-((5-methyl-1H-pyrazol-3-yl)amino)pyrimidin-4-yl)methyl propionate], the half-life at 0.2 μM in series [1] is 15 to 30 min; in series [3], > 30 min. Moreover, the figures for the half-life at 2 μM in series [1] and in series [3] were 15 to 30 min and > 30 min, respectively.

Take `CCCC(=O)OCc1nc(N(C)[C@@H]2C[C@H]3CCC[C@@H](C2)N3S(=O)(=O)CC)nc(Nc2cc(C)[nH]n2)c1F` [Compound 3, (2-(((1R,3s,5S)-9-(ethylsulfonyl)-9-azabicyclo[3.3.1]nonan-3-yl)(methyl)amino)-5-fluoro-6-((5-methyl-1H-pyrazol-3-yl)amino)pyrimidin-4-yl)methyl butyrate]: in series [1], the half-life at 0.2 μM is < 15 min and the half-life at 2 μM is < 15 min. Besides, in series [3], the half-life at 0.2 μM is > 30 min and the half-life at 2 μM was > 30 min.

Consider `CCCCC(=O)OCc1nc(N(C)[C@@H]2C[C@H]3CCC[C@@H](C2)N3S(=O)(=O)CC)nc(Nc2cc(C)[nH]n2)c1F` [Compound 4, (2-(((1R,3s,5S)-9-(ethylsulfonyl)-9-azabicyclo[3.3.1]nonan-3-yl)(methyl)amino)-5-fluoro-6-((5-methyl-1H-pyrazol-3-yl)amino)pyrimidin-4-yl)methyl pentanoate], for which, in series [1], the half-life at 0.2 μM is < 15 min and the half-life at 2 μM is < 15 min. In series [3], the half-life at 0.2 μM fell in the range of 15 to 30 min and the half-life at 2 μM was > 30 min.

With `CCS(=O)(=O)N1[C@@H]2CCC[C@H]1C[C@H](N(C)c1nc(COC(=O)OC3CCCCC3)c(F)c(Nc3cc(C)[nH]n3)n1)C2` [Compound 6, cyclohexyl ((2-(((1R,3s,5S)-9-(ethylsulfonyl)-9-azabicyclo[3.3.1]nonan-3-yl)(methyl)amino)-5-fluoro-6-((5-methyl-1H-pyrazol-3-yl)amino)pyrimidin-4-yl)methyl) carbonate], in series [1], the half-life at 0.2 μM was < 15 min and the half-life at 2 μM is < 15 min. Besides, in series [2], the Ki was 0.1 to 1 nM. In series [3], the half-life at 0.2 μM was > 30 min and the half-life at 2 μM was > 30 min.

Turning to `CCS(=O)(=O)N1[C@@H]2CCC[C@H]1C[C@H](N(C)c1nc(COC(=O)C3CCOCC3)c(F)c(Nc3cc(C)[nH]n3)n1)C2` [Compound 7, (2-(((1R,3s,5S)-9-(ethylsulfonyl)-9-azabicyclo[3.3.1]nonan-3-yl)(methyl)amino)-5-fluoro-6-((5-methyl-1H-pyrazol-3-yl)amino)pyrimidin-4-yl)methyl tetrahydro-2H-pyran-4-carboxylate], the Ki in series [2] is ≤ 0.1 nM. Further, in series [4], the microsomal CLint at 0.1 μM is > 2500 µL/min/mg.

For `CCS(=O)(=O)N1[C@@H]2CCC[C@H]1C[C@H](N(C)c1nc(COC(=O)OC3CCOCC3)c(F)c(Nc3cc(C)[nH]n3)n1)C2` [Compound 9, (2-(((1R,3s,5S)-9-(ethylsulfonyl)-9-azabicyclo[3.3.1]nonan-3-yl)(methyl)amino)-5-fluoro-6-((5-methyl-1H-pyrazol-3-yl)amino)pyrimidin-4-yl)methyl (tetrahydro-2H-pyran-4-yl) carbonate], the Ki in series [2] is ≤ 0.1 nM. Besides, the microsomal CLint at 0.1 μM in series [4] is > 2500 µL/min/mg.

`CCS(=O)(=O)N1[C@@H]2CCC[C@H]1C[C@H](N(C)c1nc(CO)c(F)c(Nc3cc(C)[nH]n3)n1)C2` [Compound M, (2-(((1R,3s,5S)-9-(ethylsulfonyl)-9-azabicyclo[3.3.1]nonan-3-yl)(methyl)amino)-5-fluoro-6-((5-methyl-1H-pyrazol-3-yl)amino)pyrimidin-4-yl)methanol]: the “Cacoverap Kp” value in series [5] is 42.3 ×10⁻⁶ cm/s. Besides, the Ki in series [2] was ≤ 0.1 nM. The microsomal CLint at 0.1 μM in series [4] was 132 µL/min/mg.

The half-life is the time in which the quantity being followed falls by half. The term microsomal CLint denotes a measure of how fast metabolising enzymes remove a compound, apart from limits set by blood flow.
